Measured values published in patent US7759346B2, “[[2-(amino-3,4-dioxo-1-cyclobuten-1-yl)amino]alkyl]-acid derivatives for the treatment of pain” (priority 2001, dated 2010).
Like-named read-outs stand apart in the source and are kept apart here.

Assays:
Spraque-Dawley rats [1] = experiment: Observable signs of sedation and ataxia
Spraque-Dawley rats [2] = type: in vivo, rat
Procedure: (§1) The terminal 10 cm of the tail was placed into a thermos bottle containing water warmed to 38, 42, 46, 50, 54, or 58° C. The latency in seconds for the animal to remove the tail from the water was used as a measure of nociception.
(§2) Following the assessment of baseline thermal sensitivity, thermal hypersensitivity was produced by a 50 μL injection of 0.1 mg prostaglandin E2 (PGE2) into the terminal 1 cm of the tail. Temperature-effect curves were generated before (baseline) and after (15, 30, 60, 90 and 120 min) the PGE2 injection.
Compounds were administered IP at the same time as PGE2, which was administered 30 min before testing.
(§3) Test Method 1 Data Analysis—The temperature that produced a half-maximal increase in the tail-withdrawal latency (i.e., T10) was calculated from each temperature-effect curve. The T10 was determined by interpolation from a line drawn between the point above and the point below 10 sec on the temperature-effect curve. For these studies, thermal hypersensitivity was defined as a leftward shift in the temperature-effect curve and a decrease in the T10 value. Reversal of thermal hypersensitivity was defined as a return to baseline of the temperature-effect curve and the T10 value and was calculated according to the following equation: […]

[3] = PCP-like effects relative to doses effective in an ischemia model; conditions: in vivo
Spraque-Dawley rats [4] = experiment: Chronic Constriction Injury-induced tactile hypersensitivity (von Frey); type: in vivo, rat; conditions: IP, one week after CCl surgery
From the text: Rats were anesthetized with 3.5% halothane in O2 at 1 L/min and maintained with 1.5% halothane in O2 during surgery. A modified chronic sciatic nerve constriction injury (Mosconi & Kruger, 1996; Bennett & Xie, 1988) was produced by a cutaneous incision and a blunt dissection through the biceps femoris to expose the sciatic nerve. A PE 90 Polyethylene tubing (Intramedic, Clay Adams; Becton Dickinson Co.) cuff (2 mm length) was placed around the sciatic nerve at the level of the mid-thigh. The wound was closed in layers using 4-0 silk suture and wound clips. Testing was conducted 6-10 days after surgery.
Animals were placed in elevated wire cages and allowed 45-60 minutes to acclimate to the testing room. Baseline tactile sensitivity was assessed using a series of calibrated von Frey monofilaments (Stoelting; Wood Dale, Ill.) 0-3 days before surgery. Von Frey monofilaments were applied to the mid-plantar hind paw in sequential ascending or descending order, as necessary, to hover as closely as possible to the threshold of responses. The threshold was indicated by the lowest force that evoked a brisk withdrawal response to the stimuli. Thus, a withdrawal response led to the presentation of the next lighter stimulus and the lack of a withdrawal response led to the presentation of the next stronger stimulus. Rats with baseline thresholds <10 g force were excluded from the study. […] Under cumulative dosing conditions, compounds were administered IP every 30 minutes with the cumulative dose increasing in ½ log unit increments. Tactile hypersensitivity was assessed 20-30 minutes following each drug administration.
Test Method 2 Data Analysis—The 50% threshold values (in gm force) estimated by the Dixon non-parametric test (Chaplan et al, 1994) was calculated and fifteen-grams of force was used as the maximal force. Dose-effect curves were generated for each experimental condition for each rat. Individual tactile hypersensitivity threshold values were averaged to provide a mean (±1 SEM). Reversal of tactile hypersensitivity was defined as a return to baseline tactile sensitivity and was calculated according to the following equation:
(§4) [formula] in which 50%^drug+CCl is the 50% value after compound in animals approximately one week after CCl surgery, 50%^CCl is the 50% value approximately one week after CCl surgery alone, and 50%^baseline is the 50% value before CCl surgery. Maximal effect of 100% reversal represents a return to the mean pre-operative threshold value for subjects in that experimental condition. Test Method 3: Scheduled-Controlled Responding.

[5] = test system: cingulate and retrosplenial cortices of mice and rats; experiment: Induction of vacuoles (vacuolization) versus behaviorally effective doses; conditions: in vivo
Spraque-Dawley rats [6] = experiment: Scheduled-controlled responding (operant responding, food presentation)
From the text: as §4
Rats were trained under a multiple-cycle procedure during experimental sessions conducted five days each week. Each training cycle consisted of a 1-min pretreatment period followed by a 10-min response period. During the pretreatment period, stimulus lights were not illuminated, and responding had no scheduled consequences. During the response period, the left or right stimulus lights were illuminated (counterbalanced among subjects), the response lever was extended and subjects could respond under a fixed ratio 30 schedule of food presentation. Training sessions consisted of 3 consecutive cycles. Testing sessions were identical to training sessions except that a single dose of drug was administered at the start of the first cycle.
Data analysis. Operant response rates from individual animals were averaged for the three cycles during test sessions and were converted to percent of control response rates using the average rate from the previous training day as the control value (i.e., average of three cycles). Data are presented as the mean (±1 SEM) response rate as a percent of control.

Spraque-Dawley rats [7] = experiment: Warm-water tail withdrawal combination studies with morphine; type: in vivo, rat; conditions: 10.0 mg/kg IP, 30 min before testing
Procedure: as §1
Combination compound studies. […] Compounds were administered IP at the same time 30 min before testing.
as §3

Spraque-Dawley rats [8] = experiment: Prostaglandin E2-induced thermal hypersensitivity, warm-water tail withdrawal, single compound studies; type: in vivo, rat; conditions: given 30 min before PGE2
Procedure: Ketamine and dizocilpine are high affinity use-dependent NMDA receptor channel blockers, while memantine is a moderate affinity use-dependent NMDA receptor channel blocker. CGS-19755 is a competitive NMDA antagonist and ifenprodil is a […] polyamine antagonist. Test Method 1: Prostaglandin E2-Induced Thermal Hypersensitivity.
as §1, §2
Single compound studies. The ability of drugs to reverse PGE2-induced thermal hypersensitivity was assessed using a single dose time-course procedure. Under this procedure, a single dose of the compound to be tested was administered intraperitoneally (IP), orally (PO) or intranasally (IN) 30 min before the injection of PGE2. […] sensitivity was assessed 30 min after PGE2 injection.
Test Method 1 Data Analysis—The temperature that produced a half-maximal increase in the tail-withdrawal latency (i.e., T10) was calculated from each temperature-effect curve. The T10 was determined by interpolation from a line drawn between the point above and the point below 10 sec on the temperature-effect curve. For these studies, thermal hypersensitivity was defined as a leftward shift in the temperature-effect curve and a decrease in the T10 value. Reversal of thermal hypersensitivity was defined as a return to baseline of the temperature-effect curve and the T10 value and was calculated according to the following equation:
[formula] in which T10^drug+PGE2 is the T10 after a drug in combination with PGE2, T10^PGE2 is the T10 after PGE2 alone, and T10^baseline is the T10 under control conditions. A % MPE value of 100 indicates a complete return to the baseline thermal sensitivity observed without the PGE2 injection. […] Test Method 2: Chronic Constriction Injury

[9] = test system: rats trained to discriminate between saline and PCP; experiment: PCP-like discriminative stimulus effects (substitution for PCP); type: in vivo

O=c1c2c(c1=O)N(CCP(=O)(O)O)CCCN2 [Compound A, [2-(8,9-Dioxo-2,6-diazabicyclo[5.2.0]non-1(7)-en-2-yl)ethyl]phosphonic acid]
ataxia or sedation (Spraque-Dawley rats [1]; at doses needed to relieve pain in preclinical models): did not produce ataxia or sedation
sedation or ataxia (Spraque-Dawley rats [1]; doses effective in PGE2 test (as high as 178 mg/kg)): not associated with sedation or ataxia
sedation or ataxia (Spraque-Dawley rats [1]; doses used in the CCl-induced tactile hypersensitivity study, IP): not associated with sedation or ataxia
Change from Baseline (T10) (Spraque-Dawley rats [2]; 10.0 mg/kg IP with PGE2, PGE2 + vehicle −5.6): −1.5
T10 (temperature producing half-maximal tail-withdrawal latency) (Spraque-Dawley rats [2]; 10 mg/kg IP with PGE2, PGE2 alone 44.8±0.1, vehicle 50.3±0.4): 48.8±0.2
devoid of many PCP-like effects up to doses times higher than those effective in an ischemia model [3]: 4-10
% Reversal of CCl-induced tactile hypersensitivity (Spraque-Dawley rats [4]; cumulative dose 1 mg/kg): 13%
% Reversal of CCl-induced tactile hypersensitivity (Spraque-Dawley rats [4]; cumulative dose 3 mg/kg): 45%
% Reversal of CCl-induced tactile hypersensitivity (Spraque-Dawley rats [4]; cumulative dose 10 mg/kg, 10 mg/kg): 97%
effectiveness/vacuolization ratio [5]: ≤ 16
Operant responding: response rate as a percent of control (Spraque-Dawley rats [6]; IP, 3 mg/kg): 111%
Operant responding: response rate as a percent of control (Spraque-Dawley rats [6]; IP, 10 mg/kg): 86%
Operant responding: response rate as a percent of control (Spraque-Dawley rats [6]; PO, 10 mg/kg): 112%
Operant responding: response rate as a percent of control (Spraque-Dawley rats [6]; PO, 30 mg/kg): 97%
Operant responding: response rate as a percent of control (Spraque-Dawley rats [6]; PO, 100 mg/kg): 100%
rates of responding (in words) (Spraque-Dawley rats [6]; schedule of food presentation, Compound A IP or PO at doses that reversed hypersensitivity): did not significantly modify rates of responding
Change from Baseline (T10) (Spraque-Dawley rats [7]): −0.3
% MPE (reversal of PGE2-induced thermal hypersensitivity) (Spraque-Dawley rats [8]; IP, 1 mg/kg): −7%
% MPE (reversal of PGE2-induced thermal hypersensitivity) (Spraque-Dawley rats [8]; IP, 3 mg/kg): 66%
% MPE (reversal of PGE2-induced thermal hypersensitivity) (Spraque-Dawley rats [8]; IP, 10 mg/kg, 10 mg/kg): 79%
% MPE (reversal of PGE2-induced thermal hypersensitivity) (Spraque-Dawley rats [8]; PO, 10 mg/kg): 5%
% MPE (reversal of PGE2-induced thermal hypersensitivity) (Spraque-Dawley rats [8]; PO, 30 mg/kg): 23%
% MPE (reversal of PGE2-induced thermal hypersensitivity) (Spraque-Dawley rats [8]; PO, 100 mg/kg, 100 mg/kg): 87%
substitution for PCP [9]: did not substitute for PCP
